Test results taken from article doi:10.1101/2025.11.06.687025v1 (biorxiv, 2025).

Tests used:
[1] = target: T1, mouse serotonin 5-HT2C receptor (Mus musculus, UniProt P34968); assay: Fura-2 Ca2+ imaging, fraction of responsive HEK/5-HT2C cells, Hill fit; assay type: cell-based
T1 construct: gene Htr2c; recombinant receptor stably expressed in HEK293 (HEK/5-HT2C cells)
T1 sequence (P34968 33-459): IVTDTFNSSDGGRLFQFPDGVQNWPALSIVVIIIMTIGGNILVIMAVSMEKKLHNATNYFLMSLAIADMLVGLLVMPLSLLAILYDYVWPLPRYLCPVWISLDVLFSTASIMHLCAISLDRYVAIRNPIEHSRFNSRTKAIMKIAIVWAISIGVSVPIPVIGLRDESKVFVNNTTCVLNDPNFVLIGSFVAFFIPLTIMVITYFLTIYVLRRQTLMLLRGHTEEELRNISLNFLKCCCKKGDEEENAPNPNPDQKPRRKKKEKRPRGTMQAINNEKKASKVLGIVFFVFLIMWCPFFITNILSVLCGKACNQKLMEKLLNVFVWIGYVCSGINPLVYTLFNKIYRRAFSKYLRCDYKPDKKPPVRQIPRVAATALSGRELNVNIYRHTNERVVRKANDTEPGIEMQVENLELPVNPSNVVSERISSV

[2] = target: T1, mouse serotonin 5-HT2C receptor; assay: as above; assay type: cell-based; remark: listed apart in the source

Row | IC50 [1] [nM] | EC50 [2] [nM] | Structure (SMILES)
1 | 1200 |  | O=c1cc(N2CCOCC2)oc2c(-c3ccccc3)cccc12 [LY294002]
2 |  | 2500 | O=c1cc(N2CCNCC2)oc2c(-c3ccccc3)cccc12 [LY303511]
